These results are taken from patent US9999622B2, “Pyrazolothiazole compound and medicine comprising same” (NIPPON SHINYAKU CO., LTD., priority 2014, dated 2018).

Structures can show the parent of a compound that is named as a salt.

Assay [1] addresses T1, JAK1 (Homo sapiens, UniProt P23458).
T1 construct: purchased Carna Biosciences, Inc
Put plainly: JAK tyrosine kinase inhibitory activity in the presence of 1 mM ATP (ELISA), JAK1. The format is biochemical. The gist of the method:
(§1)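 Recombinant kinase (7.5 nM JAK1; 0.75 nM JAK2, JAK3 working dilutions) reacted 1 h at 30 °C with 1 mM ATP in Tris-HCl pH 7.5, Tween-20, DTT, on streptavidin plates. Phosphotyrosine detected by HRP anti-pTyr antibody ELISA, TMB absorbance at 450 nm; duplicate wells, DMSO as negative control.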

Assay [2] relates to Aspergillus-induced airway inflammation model. Put plainly: Inhibitory effect on Aspergillus-induced airway inflammation model. The following applies: mice; for inhibition in vivo at 10000 µg/mL, 100 mg/kg: Mus musculus, Eosinophil, po, 240 h, 10 mg/mL suspension at 10 mL/kg twice a day Day 0 to Day 9, BALF collected at Day 10, read-out: Inhibition rate on count of invasive eosinophil in BALF (%); for Inhibition rate on count of invasive eosinophil in BALF (%): oral, 10 mg/mL suspension at 10 mL/kg twice a day Day 0 to Day 9, BALF collected at Day 10. The format is in vivo. The method, then:
Aspergillus fumigatus extracts (Greer laboratories, Inc.) were adjusted to 400 μg/mL with PBS. The Aspergillus fumigatus solutions thus prepared were administered to mice as nasal drops (50 μL) on Day 0, Day 1, Day 7 and Day 8. The nasal drop was administered one hour after the administration of test compounds in the morning. The test compound was administered twice a day in the morning and evening of Day 0 to Day 9. The test compound was suspended in 0.5% methylcellulose at 10 mg/mL, and orally administered at the dosage of 10 mL/kg. The bronchoalveolar lavage fluid (BALF) was collected at Day 10, and the total white blood cell count in BALF was measured using Celltac (NIHON KOHDEN). The ratio of eosinophil in total white blood cell was calculated using ADVIA 120 (Siemens Healthcare Diagnostics), and the ratio was multiplied by the total white blood cell count to determine the eosinophil count in BALF. The inhibition rate of the test compound was determined, assuming the inhibitory ratio in the treatment with Aspergillus fumigatus extract and 0.5% methylcellulose as 0% and the inhibitory ratio in the treatment without Aspergillus fumigatus extract but with 0.5% methylcellulose as 100%.

The target of assay [3] is T2, JAK2 (Homo sapiens, UniProt O60674).
T2 construct: purchased Carna Biosciences, Inc
The assay can be described thus: JAK tyrosine kinase inhibitory activity in the presence of 1 mM ATP (ELISA), JAK2. The format is biochemical. The gist of the method: as §1

In assay [4] the target is T3, JAK3 (Homo sapiens, UniProt P52333).
T3 construct: purchased Carna Biosciences, Inc
T3 sequence (P52333 1-1124): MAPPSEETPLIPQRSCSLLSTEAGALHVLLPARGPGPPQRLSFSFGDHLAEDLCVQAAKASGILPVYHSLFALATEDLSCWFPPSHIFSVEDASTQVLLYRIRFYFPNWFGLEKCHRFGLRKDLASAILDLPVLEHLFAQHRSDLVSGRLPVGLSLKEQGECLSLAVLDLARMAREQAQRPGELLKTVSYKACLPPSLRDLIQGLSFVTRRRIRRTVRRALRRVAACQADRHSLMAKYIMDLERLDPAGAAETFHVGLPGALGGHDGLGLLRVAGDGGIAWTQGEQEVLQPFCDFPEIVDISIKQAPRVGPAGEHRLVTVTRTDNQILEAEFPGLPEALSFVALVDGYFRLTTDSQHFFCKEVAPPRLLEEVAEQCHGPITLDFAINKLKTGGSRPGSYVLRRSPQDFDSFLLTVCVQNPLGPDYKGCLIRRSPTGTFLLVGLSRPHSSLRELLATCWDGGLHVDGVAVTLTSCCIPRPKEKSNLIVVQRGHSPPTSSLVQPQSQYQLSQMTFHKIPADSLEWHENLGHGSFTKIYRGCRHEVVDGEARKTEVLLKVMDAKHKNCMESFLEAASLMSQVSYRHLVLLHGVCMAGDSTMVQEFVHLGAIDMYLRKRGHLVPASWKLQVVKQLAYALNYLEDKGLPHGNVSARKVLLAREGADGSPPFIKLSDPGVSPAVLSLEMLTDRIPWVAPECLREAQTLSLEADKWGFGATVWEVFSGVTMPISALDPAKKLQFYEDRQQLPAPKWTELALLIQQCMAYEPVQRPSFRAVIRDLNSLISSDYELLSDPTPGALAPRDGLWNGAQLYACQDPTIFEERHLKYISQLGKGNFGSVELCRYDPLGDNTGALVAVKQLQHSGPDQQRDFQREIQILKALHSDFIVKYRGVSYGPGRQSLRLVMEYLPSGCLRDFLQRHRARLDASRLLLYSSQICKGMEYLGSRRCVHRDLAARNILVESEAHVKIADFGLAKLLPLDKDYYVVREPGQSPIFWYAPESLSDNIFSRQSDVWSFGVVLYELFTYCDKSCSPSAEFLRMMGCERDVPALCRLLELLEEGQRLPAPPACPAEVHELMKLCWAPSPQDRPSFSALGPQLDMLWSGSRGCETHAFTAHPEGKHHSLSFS
The assay can be described thus: JAK tyrosine kinase inhibitory activity in the presence of 1 mM ATP (ELISA), JAK3. The format is biochemical. The gist of the method: as §1

T2 sequence (O60674 whole entry): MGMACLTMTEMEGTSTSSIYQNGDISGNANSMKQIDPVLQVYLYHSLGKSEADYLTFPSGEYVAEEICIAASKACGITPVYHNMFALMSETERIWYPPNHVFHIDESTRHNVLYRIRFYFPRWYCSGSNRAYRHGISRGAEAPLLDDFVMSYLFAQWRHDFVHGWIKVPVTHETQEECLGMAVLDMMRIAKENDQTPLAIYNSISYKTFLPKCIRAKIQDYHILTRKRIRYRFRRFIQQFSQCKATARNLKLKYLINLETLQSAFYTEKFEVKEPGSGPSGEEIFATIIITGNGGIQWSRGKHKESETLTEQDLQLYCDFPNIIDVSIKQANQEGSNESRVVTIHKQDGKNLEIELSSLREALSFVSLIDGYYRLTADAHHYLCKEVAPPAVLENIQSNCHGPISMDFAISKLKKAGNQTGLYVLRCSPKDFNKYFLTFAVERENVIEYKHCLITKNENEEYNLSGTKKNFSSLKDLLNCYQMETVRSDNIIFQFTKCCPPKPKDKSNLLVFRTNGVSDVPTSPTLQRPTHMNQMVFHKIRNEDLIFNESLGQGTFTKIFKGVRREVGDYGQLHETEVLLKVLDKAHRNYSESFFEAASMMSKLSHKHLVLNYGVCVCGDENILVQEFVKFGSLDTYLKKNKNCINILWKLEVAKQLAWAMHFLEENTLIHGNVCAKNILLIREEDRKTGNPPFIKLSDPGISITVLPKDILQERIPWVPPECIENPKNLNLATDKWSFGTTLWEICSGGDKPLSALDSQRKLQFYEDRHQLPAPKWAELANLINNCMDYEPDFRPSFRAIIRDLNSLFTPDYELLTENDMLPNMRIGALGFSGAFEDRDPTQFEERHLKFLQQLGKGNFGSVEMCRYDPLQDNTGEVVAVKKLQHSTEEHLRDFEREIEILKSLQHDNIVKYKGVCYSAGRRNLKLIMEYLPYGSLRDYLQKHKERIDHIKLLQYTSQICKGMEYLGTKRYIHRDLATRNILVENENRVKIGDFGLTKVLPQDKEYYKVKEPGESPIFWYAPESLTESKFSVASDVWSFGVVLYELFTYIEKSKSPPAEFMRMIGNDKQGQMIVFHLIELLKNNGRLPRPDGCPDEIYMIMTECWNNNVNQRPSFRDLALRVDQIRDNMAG
T1 sequence (P23458 whole entry): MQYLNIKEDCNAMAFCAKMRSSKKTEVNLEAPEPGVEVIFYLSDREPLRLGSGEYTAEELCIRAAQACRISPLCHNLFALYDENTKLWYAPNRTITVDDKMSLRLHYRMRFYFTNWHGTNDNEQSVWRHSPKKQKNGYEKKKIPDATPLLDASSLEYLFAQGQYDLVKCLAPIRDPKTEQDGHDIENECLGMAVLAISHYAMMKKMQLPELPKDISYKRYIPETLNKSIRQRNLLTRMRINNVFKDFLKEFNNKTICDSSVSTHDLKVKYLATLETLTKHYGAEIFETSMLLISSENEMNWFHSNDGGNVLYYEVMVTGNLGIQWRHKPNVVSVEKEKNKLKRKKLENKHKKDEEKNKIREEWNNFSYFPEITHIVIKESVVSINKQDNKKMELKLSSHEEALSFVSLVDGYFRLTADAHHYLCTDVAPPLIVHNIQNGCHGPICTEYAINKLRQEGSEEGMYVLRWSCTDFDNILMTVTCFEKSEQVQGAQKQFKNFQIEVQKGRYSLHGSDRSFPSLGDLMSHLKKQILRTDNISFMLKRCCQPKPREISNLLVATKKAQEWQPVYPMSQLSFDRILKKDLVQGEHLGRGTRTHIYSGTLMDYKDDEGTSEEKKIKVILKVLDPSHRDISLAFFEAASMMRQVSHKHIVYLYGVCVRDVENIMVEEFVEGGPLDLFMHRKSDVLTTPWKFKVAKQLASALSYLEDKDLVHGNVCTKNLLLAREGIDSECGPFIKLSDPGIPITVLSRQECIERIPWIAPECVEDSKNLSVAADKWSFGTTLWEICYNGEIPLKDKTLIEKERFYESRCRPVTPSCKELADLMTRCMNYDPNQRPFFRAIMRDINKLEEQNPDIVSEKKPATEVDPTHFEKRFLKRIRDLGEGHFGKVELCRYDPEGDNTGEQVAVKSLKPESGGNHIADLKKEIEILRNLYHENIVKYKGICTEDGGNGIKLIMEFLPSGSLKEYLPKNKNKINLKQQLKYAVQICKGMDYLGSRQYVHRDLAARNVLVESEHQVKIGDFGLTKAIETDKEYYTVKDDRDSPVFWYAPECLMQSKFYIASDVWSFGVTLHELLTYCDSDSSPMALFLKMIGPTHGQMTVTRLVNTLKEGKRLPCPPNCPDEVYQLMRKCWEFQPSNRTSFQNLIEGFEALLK

Turning to `C[C@H](Nc1cc(C(=O)N2CCC(NC(=O)C3CC3)CC2)nc(-c2cnn3ccsc23)n1)C1CC1` [Example 1, N-(1-{[6-{[(1S)-1-Cyclopropylethyl]amino}-2-(pyrazolo[5,1-b][1,3]thiazol-7-yl)pyrimidin-4-yl]carbonyl}piperidin-4-yl)cyclopropanecarboxamide hydrochloride], the IC50 in assay [1] turned out to be 52 nM; in assay [3], 3400 nM; in assay [4], 3400 nM. Also, in assay [2], the inhibition in vivo at 10000 µg/mL, 100 mg/kg was found to be 43%.

As for `C[C@@H](Nc1cc(C(=O)N2CCC(NC(=O)C3CC3)CC2)nc(-c2cnn3ccsc23)n1)C(C)(C)C` [Example 16, N-(1-{[6-{[(2R)-3,3-Dimethylbutan-2-yl]amino}-2-(pyrazolo[5,1-b][1,3]thiazol-7-yl)pyrimidin-4-yl]carbonyl}piperidin-4-yl)cyclopropanecarboxamide], the IC50 in assay [1] turned out to be 53 nM; in assay [3], 2200 nM; in assay [4] it was 2200 nM. In addition, in assay [2], the inhibition in vivo at 10000 µg/mL, 100 mg/kg worked out at 33%.

As to `C[C@H](Nc1cc(C(=O)N2CCC(O)CC2)nc(-c2cnn3ccsc23)n1)C1CC1` [Example 20, [6-{[(1S)-1-Cyclopropylethyl]amino}-2-(pyrazolo[5,1-b][1,3]thiazol-7-yl)pyrimidin-4-yl](4-hydroxypiperidin-1-yl)methanone hydrochloride], the figures for the IC50 in assay [1], in assay [3] and in assay [4] were 1400 nM, 4700 nM and 4200 nM, respectively. Also, the inhibition in vivo at 10000 µg/mL, 100 mg/kg in assay [2] came out at 61%.

As to `C[C@H](Nc1cc(C(=O)N2CCC(NC(=O)OC(C)(C)CF)CC2)nc(-c2cnn3ccsc23)n1)C1CC1` [Example 21, 1-Fluoro-2-methylpropan-2-yl (1-{[6-{[(1S)-1-cyclopropylethyl]amino}-2-(pyrazolo[5,1-b][1,3]thiazol-7-yl)pyrimidin-4-yl]carbonyl}piperidin-4-yl)carbamate hydrochloride], the IC50 was 230 nM in assay [1], 2200 nM in assay [3] and more than 10000 nM in assay [4]. Further, the inhibition in vivo at 10000 µg/mL, 100 mg/kg in assay [2] was 47%.

With `COC(=O)NC1CCN(C(=O)c2cc(N[C@@H](C)C(C)(C)C)nc(-c3cnn4ccsc34)n2)CC1` [Example 22, Methyl (1-{[6-{[(2S)-3,3-dimethylbutan-2-yl]amino}-2-(pyrazolo[5,1-b][1,3]thiazol-7-yl)pyrimidin-4 yl]carbonyl}piperidin-4-yl)carbamate], the values for the IC50 in assay [1], in assay [3] and in assay [4] were 130 nM, 800 nM and 3700 nM, respectively. Also, the inhibition in vivo at 10000 µg/mL, 100 mg/kg in assay [2] amounted to 57%.

In the case of `C[C@H](Nc1cc(C(=O)N2CCC(O)CC2)nc(-c2cnn3ccsc23)n1)C(C)(C)C` [Example 23, [6-{[(2S)-3,3-Dimethylbutan-2-yl]amino}-2-(pyrazolo[5,1-b][1,3]thiazol-7-yl)pyrimidin-4-yl](4-hydroxypiperidin-1-yl)methanone], the half-maximal inhibitory concentration (IC50) is 860 nM in assay [1], 870 nM in assay [3] and 3300 nM in assay [4]. Also, the inhibition in vivo at 10000 µg/mL, 100 mg/kg in assay [2] was determined as 31%.

As for `COC(=O)NC1CCN(C(=O)c2cc(N[C@H](C)C(C)C)nc(-c3cnn4ccsc34)n2)CC1` [Example 24, Methyl (1-{[6-{[(2R)-3-methylbutan-2-yl]amino}-2-(pyrazolo[5,1-b][1,3]thiazol-7-yl)pyrimidin-4-yl]carbonyl}piperidin-4-yl)carbamate hydrochloride], the IC50 in assay [1] stood at 290 nM; in assay [3] it was 1500 nM; in assay [4] it was 4200 nM. In addition, the inhibition in vivo at 10000 µg/mL, 100 mg/kg in assay [2] turned out to be 35%.

As for `COC(=O)NC1CCN(C(=O)c2cc(N[C@@H](C)C(C)C)nc(-c3cnn4ccsc34)n2)CC1` [Example 25, Methyl (l-{[6-{[(2S)-3-methylbutan-2-yl]amino}-2-(pyrazolo[5,1-b][1,3]thiazol-7-yl)pyrimidin-4-yl]carbonyl}piperidin-4-yl)carbamate hydrochloride], the IC50 in assay [1] came out at 200 nM; in assay [3], 800 nM; in assay [4] it was 2000 nM. The inhibition in vivo at 10000 µg/mL, 100 mg/kg in assay [2] came out at 30%.

With `COC(=O)NC1CCN(C(=O)c2cc(N[C@@H](C)C3CC3)nc(-c3cnn4ccsc34)n2)CC1` [Example 26, Methyl (1-{[6-{[(1S)-1-cycloproropylethyl]amino}-2-(pyrazolo[5,1-b][1,3]thiazol-7-yl)pyrimidin-4-yl]carbonyl}piperidin-4-yl)carbamate], the results for the IC50 in assay [1], in assay [3] and in assay [4] were 75 nM, 2100 nM and 2100 nM, respectively. Moreover, in assay [2], the inhibition in vivo at 10000 µg/mL, 100 mg/kg was 58%.

On to `COC(=O)NC1CCN(C(=O)c2cc(N[C@@H](C)C3CC3)nc(-c3cnn4ccsc34)n2)CC1.Cl` [Example 27, Methyl (1-{[6-{[(1S)-1-cyclopropylethyl]amino}-2-(pyrazolo[5,1-b][1,3]thiazol-7-yl)pyrimidin-4-yl]carbonyl}piperidin-4-yl)carbamate hydrochloride], for which the IC50 was 140 nM in assay [1], 2500 nM in assay [3] and 4300 nM in assay [4]. Further, in assay [2], the “Inhibition rate on count of invasive eosinophil in BALF (%)” value is reported as 62%.

Take `CC[C@@H](C)Nc1cc(C(=O)N2CCC(NC(=O)OC)CC2)nc(-c2cnn3ccsc23)n1.Cl` [Example 127, Methyl [1-({6-[(2R)-butan-2-ylamino]-2-(pyrazolo[5,1-b][1,3]thiazol-7-yl)pyrimidin-4-yl}carbonyl)piperidin-4-yl]carbamate hydrochloride]: the IC50 in assay [1] was found to be 590 nM. In assay [2], the “Inhibition rate on count of invasive eosinophil in BALF (%)” value came to 38%.

Consider `COC(=O)NC1CCN(C(=O)c2cc(N[C@@H]3CCN(C(=O)C4CC4)C3)nc(-c3cnn4ccsc34)n2)CC1` [Example 205, Methyl 1-[6-[(3R)-1-(cyclopropanecarbonyl)pyrrolidin-3-yl]amino-2-(pyrazolo[5,1-b][1,3]thiazol-7-yl)pyrimidine-4-carbonyl]piperidin-4-ylcarbamate], for which the figures for the IC50 in assay [1], in assay [3] and in assay [4] were 850 nM, more than 10000 nM and more than 10000 nM, respectively.

For `COC(=O)NC1CCN(C(=O)c2cc(N[C@@H]3CCN(C(=O)C4CCC4)C3)nc(-c3cnn4ccsc34)n2)CC1` [Example 206, Methyl 1-[6-[(3R)-1-(cyclobutanecarbonyl)pyrrolidin-3-yl]amino-2-(pyrazolo[5,1-b][1,3]thiazol-7-yl)pyrimidine-4-carbonyl]piperidin-4-ylcarbamate], the IC50 in assay [1] is 940 nM; in assay [3] it was more than 10000 nM; in assay [4] it was more than 10000 nM.

Take `CCCC(=O)N1CC[C@@H](Nc2cc(C(=O)N3CCC(NC(=O)OC)CC3)nc(-c3cnn4ccsc34)n2)C1` [Example 207, Methyl 1-[6-[(3R)-1-butanoylpyrrolidin-3-yl]amino-2-(pyrazolo[5,1-b][1,3]thiazol-7-yl)pyrimidine-4-carbonyl]piperidin-4-ylcarbamate]: the IC50 was 410 nM in assay [1], more than 10000 nM in assay [3] and more than 10000 nM in assay [4].
